The RepoRT retention time repository (doi:10.1016/j.jchromb.2020.122105)

Legend:
Conditions in all cases: stereoisomer not certain
[1] = RP, Waters ACQUITY UPLC BEH C18, 100 × 2.1 mm, 1.7 µm, 0.1 mL/min, estimated dead time 2.2 min; A: water + 0.1% formic acid, pH 3; B: methanol + 0.1% formic acid, pH 3; gradient (min/%B) 0/5 5/5 25/100 30/100 30.1/5 35/5
[2] = RP, Waters CORTECS T3, 100 × 2.1 mm, 2.7 µm, 0.15 mL/min, estimated dead time 1.5 min; A: water + 0.1% formic acid, pH 3; B: methanol + 0.1% formic acid, pH 3; gradient (min/%B) 0/0 1/0 6/5 30/100 35/100 35.1/0 40/0
[3] = RP, Waters CORTECS T3, 100 × 2.1 mm, 2.7 µm, 0.3 mL/min, estimated dead time 0.73 min; A: water + 0.1% formic acid, pH 3; B: methanol + 0.1% formic acid, pH 3; gradient (min/%B) 0/5 5/5 25/100 30/100 30.1/5 35/5
[4] = RP, Waters ACQUITY UPLC BEH C18, 100 × 2.1 mm, 1.7 µm, 0.1 mL/min, estimated dead time 2.2 min; A: water + 0.1% formic acid, pH 3; B: methanol + 0.1% formic acid, pH 3; gradient (min/%B) 0/5 5/5 25/95 25.1/100 35/100 35.1/5 45/5
[5] = RP, Waters CORTECS T3, 100 × 2.1 mm, 2.7 µm, 0.1 mL/min, estimated dead time 2.2 min; A: water + 0.1% formic acid, pH 3; B: methanol + 0.1% formic acid, pH 3; gradient (min/%B) 0/0 1/0 6/5 30/100 35/100 35.1/0 40/0
[6] = RP, Waters CORTECS T3, 100 × 2.1 mm, 2.7 µm, 0.3 mL/min, estimated dead time 0.73 min; A: water + 0.1% formic acid, pH 3; B: methanol + 0.1% formic acid, pH 3; gradient (min/%B) 0/0 5/0 25/100 30/100 30.1/0 35/0
[7] = RP, Waters CORTECS T3, 100 × 2.1 mm, 2.7 µm, 0.2 mL/min, estimated dead time 1.1 min; A: water + 0.045% formic acid + 0.11% ammonium hydroxide, pH 7; B: methanol; gradient (min/%B) 0/5 5/5 25/95 25.1/100 35/100 35.1/5 45/5
[8] = RP, Waters CORTECS T3, 100 × 2.1 mm, 2.7 µm, 0.1 mL/min, estimated dead time 2.2 min; A: water + 0.1% formic acid, pH 3; B: methanol + 0.1% formic acid, pH 3; gradient (min/%B) 0/5 5/5 25/95 25.1/100 35/100 35.1/5 45/5
[9] = RP, Waters CORTECS T3, 100 × 2.1 mm, 2.7 µm, 0.2 mL/min, estimated dead time 1.1 min; A: water + 0.1% formic acid, pH 3; B: methanol + 0.1% formic acid, pH 3; gradient (min/%B) 0/0 1/0 6/5 30/100 35/100 35.1/0 40/0
[10] = RP, Waters ACQUITY UPLC BEH C18, 100 × 2.1 mm, 1.7 µm, 0.1 mL/min, estimated dead time 2.2 min; A: water + 0.045% formic acid + 0.11% ammonium hydroxide, pH 7; B: methanol; gradient (min/%B) 0/5 5/5 25/95 25.1/100 35/100 35.1/5 45/5
[11] = RP, Thermo Scientific Hypercarb, 150 × 2.1 mm, 5 µm, 0.1 mL/min, estimated dead time 3.3 min; A: water + 0.1% formic acid, pH 3; B: methanol + 0.1% formic acid, pH 3; gradient (min/%B) 0/5 5/5 20/100 35/100 35.1/5 45/5
[12] = RP, Waters ACQUITY UPLC BEH C18, 100 × 2.1 mm, 1.7 µm, 0.1 mL/min, estimated dead time 2.2 min; A: water + 0.1% formic acid, pH 3; B: methanol + 0.1% formic acid, pH 3; gradient (min/%B) 0/5 5/5 25/95 25.1/100 35/100 35.1/5 45/5; remark: listed apart in the source
[13] = RP, Waters CORTECS T3, 100 × 2.1 mm, 2.7 µm, 0.3 mL/min, estimated dead time 0.73 min; A: water + 0.1% formic acid, pH 3; B: methanol + 0.1% formic acid, pH 3; gradient (min/%B) 0/5 5/5 25/95 25.1/100 35/100 35.1/5 45/5
[14] = RP, Waters CORTECS T3, 100 × 2.1 mm, 2.7 µm, 0.25 mL/min, estimated dead time 0.88 min; A: water + 0.1% formic acid, pH 3; B: methanol + 0.1% formic acid, pH 3; gradient (min/%B) 0/0 1/0 6/5 30/100 35/100 35.1/0 40/0
[15] = RP, Waters ACQUITY UPLC BEH C18, 100 × 2.1 mm, 1.7 µm, 0.2 mL/min, estimated dead time 1.1 min; A: water + 0.025% formic acid + 20 mM ammonium acetate + 0.055% ammonium hydroxide, pH 7; B: methanol; gradient (min/%B) 0/5 5/5 25/100 30/100 30.1/5 35/5
[16] = RP, Waters CORTECS T3, 100 × 2.1 mm, 2.7 µm, 0.3 mL/min, estimated dead time 0.73 min; A: water + 0.1% formic acid, pH 3; B: methanol + 0.1% formic acid, pH 3; gradient (min/%B) 0/0 1/0 6/5 30/100 35/100 35.1/0 40/0
[17] = HILIC, Waters XBridge BEH Amide, 100 × 2.1 mm, 2.5 µm, 0.5 mL/min, estimated dead time 0.44 min; A: water + 0.1% acetic acid + 10 mM ammonium acetate, pH 4; B: 5% water + 95% acetonitrile + 0.1% acetic acid + 10 mM ammonium acetate, pH 4; gradient (min/%B) 0/95 5/95 20/57 25/57 30/95 40/95

Structure (SMILES)	LC retention time [1]	LC retention time [2]	LC retention time [3]	LC retention time [4]	LC retention time [5]	LC retention time [6]	LC retention time [7]	LC retention time [8]	LC retention time [9]	LC retention time [10]	LC retention time [11]	LC retention time [12]	LC retention time [13]	LC retention time [14]	LC retention time [15]	LC retention time [16]	LC retention time [17]
CC1C(=O)Nc2ccccc21 (stereo unspecified) [3-METHYL-2-OXINDOLE]	18.9 min	18.4 min	13.3 min	19.2 min	15.2 min	14.2 min	15.2 min	18.8 min	17 min	19.2 min	32.3 min	19.2 min	13.6 min	16.1 min	–	–	–
CC12CCC(=O)C=C1CCC1C2C(O)CC2(C)C1CCC2(O)C(=O)CO (stereo unspecified) [CORTISOL]	21.1 min	22 min	16.7 min	21.6 min	18.5 min	17.3 min	18.5 min	21.6 min	20.8 min	21.6 min	–	21.6 min	17.2 min	20 min	18.1 min	19.4 min	–
CC12CCC(=O)C=C1CCC1C2C(=O)CC2(C)C1CCC2(O)C(=O)CO (stereo unspecified) [CORTISONE]	20.5 min	21.4 min	16.3 min	21 min	18 min	16.9 min	18 min	21 min	20.2 min	21 min	–	21 min	16.7 min	19.5 min	17.6 min	18.9 min	–
CC(=O)OCC(=O)C1CCC2C3CCC4=CC(=O)CCC4(C)C3CCC12C (stereo unspecified) [DEOXYCORTICOSTERONE ACETATE]	24.5 min	26.3 min	20.4 min	25.3 min	22.4 min	20.8 min	22.4 min	25.4 min	25.2 min	25.3 min	–	25.3 min	21.1 min	24.4 min	21.6 min	23.8 min	–
CCCCCCCCCCCC(=O)OC(CC(=O)[O-])C[N+](C)(C)C (stereo unspecified) [LAUROYLCARNITINE]	24.5 min	25.7 min	20 min	25.8 min	21.8 min	20.3 min	22.8 min	24.5 min	24.7 min	26.6 min	28.5 min	25.7 min	20.6 min	23.9 min	22.8 min	23.4 min	–

Results, then the compound that gave them:

LC retention time [1]	LC retention time [2]	LC retention time [3]	LC retention time [4]	LC retention time [5]	LC retention time [6]	LC retention time [7]	LC retention time [8]	LC retention time [9]	LC retention time [10]	LC retention time [11]	LC retention time [12]	LC retention time [13]	LC retention time [14]	LC retention time [15]	LC retention time [16]	LC retention time [17]	Structure (SMILES)
15.2 min	14.7 min	10.4 min	15.7 min	11.8 min	11.4 min	16.5 min	15.1 min	13.4 min	20.5 min	–	15.6 min	10.5 min	12.6 min	16.6 min	12 min	0.65 min	Cc1cc2nc[nH]c2cc1C [DIMETHYLBENZIMIDAZOLE]
18.2 min	17.7 min	12.7 min	18.5 min	14.5 min	13.6 min	14.5 min	18 min	16.2 min	18.5 min	–	18.5 min	12.9 min	15.3 min	14.7 min	14.6 min	–	OCCc1c[nH]c2ccccc12 [INDOLE-3-ETHANOL]
15.1 min	14.4 min	9.81 min	15.2 min	11.4 min	11 min	11.7 min	15.1 min	12.9 min	15.3 min	–	15.2 min	9.92 min	12.1 min	11.7 min	11.4 min	–	CSc1ncnc2nc[nH]c12 [THIOPURINE S-METHYLETHER]
